# Measurements: patent US7531320B2, “Modulation of β-catenin/TCF-activated transcription” (priority 2003, dated 2009)
# Assays:
# HL60 = details: human
# Protocol: (§1) Cytotoxicity of COMPOUND 3 (an analog of COMPOUND 1, FIG. 1A) and other anticancer therapeutics were measured using cancer cells with various origins.
# 293 = details: human
# Protocol: as §1
# MCF7 = details: human
# Protocol: as §1
# A549 = details: human
# Protocol: as §1
# PC3 = details: human
# Protocol: as §1
# RPM17951 = details: human
# Protocol: as §1
# SW480 cells = test: Soft agar colony formation assay with SW480 cells; format: cell-based, human; details: Homo sapiens, 192 h, 5000 cells/well, colonies counted after 8 days
# CBP (1-111) = biological target: T1, CBP (1-111) (Mus musculus, UniProt P45481); test: Pull-down of CBP deletion constructs on COMPOUND 2 coated beads, competition with excess COMPOUND 1; format: binding; details: E. coli expressed 6x-His protein, 100 μM COMPOUND 2
# T1 construct: 6xHis (C); HSV tag (C); expressed in transfected cells
# T1 sequence (P45481 1-110): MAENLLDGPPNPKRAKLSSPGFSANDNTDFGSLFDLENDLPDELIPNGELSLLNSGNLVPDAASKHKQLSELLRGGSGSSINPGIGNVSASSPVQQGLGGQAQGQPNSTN
# CBP = biological target: T2, CBP (Homo sapiens, UniProt Q92793); test: COMPOUND 2 streptavidin-agarose affinity pull-down from SW480 nuclear extracts; format: binding; details: SW480 nuclear extract, immunoblotting with anti-CBP
# T2 construct: endogenous in cells; host or cells: SW480 nuclear extract
# T2 sequence (Q92793 whole entry): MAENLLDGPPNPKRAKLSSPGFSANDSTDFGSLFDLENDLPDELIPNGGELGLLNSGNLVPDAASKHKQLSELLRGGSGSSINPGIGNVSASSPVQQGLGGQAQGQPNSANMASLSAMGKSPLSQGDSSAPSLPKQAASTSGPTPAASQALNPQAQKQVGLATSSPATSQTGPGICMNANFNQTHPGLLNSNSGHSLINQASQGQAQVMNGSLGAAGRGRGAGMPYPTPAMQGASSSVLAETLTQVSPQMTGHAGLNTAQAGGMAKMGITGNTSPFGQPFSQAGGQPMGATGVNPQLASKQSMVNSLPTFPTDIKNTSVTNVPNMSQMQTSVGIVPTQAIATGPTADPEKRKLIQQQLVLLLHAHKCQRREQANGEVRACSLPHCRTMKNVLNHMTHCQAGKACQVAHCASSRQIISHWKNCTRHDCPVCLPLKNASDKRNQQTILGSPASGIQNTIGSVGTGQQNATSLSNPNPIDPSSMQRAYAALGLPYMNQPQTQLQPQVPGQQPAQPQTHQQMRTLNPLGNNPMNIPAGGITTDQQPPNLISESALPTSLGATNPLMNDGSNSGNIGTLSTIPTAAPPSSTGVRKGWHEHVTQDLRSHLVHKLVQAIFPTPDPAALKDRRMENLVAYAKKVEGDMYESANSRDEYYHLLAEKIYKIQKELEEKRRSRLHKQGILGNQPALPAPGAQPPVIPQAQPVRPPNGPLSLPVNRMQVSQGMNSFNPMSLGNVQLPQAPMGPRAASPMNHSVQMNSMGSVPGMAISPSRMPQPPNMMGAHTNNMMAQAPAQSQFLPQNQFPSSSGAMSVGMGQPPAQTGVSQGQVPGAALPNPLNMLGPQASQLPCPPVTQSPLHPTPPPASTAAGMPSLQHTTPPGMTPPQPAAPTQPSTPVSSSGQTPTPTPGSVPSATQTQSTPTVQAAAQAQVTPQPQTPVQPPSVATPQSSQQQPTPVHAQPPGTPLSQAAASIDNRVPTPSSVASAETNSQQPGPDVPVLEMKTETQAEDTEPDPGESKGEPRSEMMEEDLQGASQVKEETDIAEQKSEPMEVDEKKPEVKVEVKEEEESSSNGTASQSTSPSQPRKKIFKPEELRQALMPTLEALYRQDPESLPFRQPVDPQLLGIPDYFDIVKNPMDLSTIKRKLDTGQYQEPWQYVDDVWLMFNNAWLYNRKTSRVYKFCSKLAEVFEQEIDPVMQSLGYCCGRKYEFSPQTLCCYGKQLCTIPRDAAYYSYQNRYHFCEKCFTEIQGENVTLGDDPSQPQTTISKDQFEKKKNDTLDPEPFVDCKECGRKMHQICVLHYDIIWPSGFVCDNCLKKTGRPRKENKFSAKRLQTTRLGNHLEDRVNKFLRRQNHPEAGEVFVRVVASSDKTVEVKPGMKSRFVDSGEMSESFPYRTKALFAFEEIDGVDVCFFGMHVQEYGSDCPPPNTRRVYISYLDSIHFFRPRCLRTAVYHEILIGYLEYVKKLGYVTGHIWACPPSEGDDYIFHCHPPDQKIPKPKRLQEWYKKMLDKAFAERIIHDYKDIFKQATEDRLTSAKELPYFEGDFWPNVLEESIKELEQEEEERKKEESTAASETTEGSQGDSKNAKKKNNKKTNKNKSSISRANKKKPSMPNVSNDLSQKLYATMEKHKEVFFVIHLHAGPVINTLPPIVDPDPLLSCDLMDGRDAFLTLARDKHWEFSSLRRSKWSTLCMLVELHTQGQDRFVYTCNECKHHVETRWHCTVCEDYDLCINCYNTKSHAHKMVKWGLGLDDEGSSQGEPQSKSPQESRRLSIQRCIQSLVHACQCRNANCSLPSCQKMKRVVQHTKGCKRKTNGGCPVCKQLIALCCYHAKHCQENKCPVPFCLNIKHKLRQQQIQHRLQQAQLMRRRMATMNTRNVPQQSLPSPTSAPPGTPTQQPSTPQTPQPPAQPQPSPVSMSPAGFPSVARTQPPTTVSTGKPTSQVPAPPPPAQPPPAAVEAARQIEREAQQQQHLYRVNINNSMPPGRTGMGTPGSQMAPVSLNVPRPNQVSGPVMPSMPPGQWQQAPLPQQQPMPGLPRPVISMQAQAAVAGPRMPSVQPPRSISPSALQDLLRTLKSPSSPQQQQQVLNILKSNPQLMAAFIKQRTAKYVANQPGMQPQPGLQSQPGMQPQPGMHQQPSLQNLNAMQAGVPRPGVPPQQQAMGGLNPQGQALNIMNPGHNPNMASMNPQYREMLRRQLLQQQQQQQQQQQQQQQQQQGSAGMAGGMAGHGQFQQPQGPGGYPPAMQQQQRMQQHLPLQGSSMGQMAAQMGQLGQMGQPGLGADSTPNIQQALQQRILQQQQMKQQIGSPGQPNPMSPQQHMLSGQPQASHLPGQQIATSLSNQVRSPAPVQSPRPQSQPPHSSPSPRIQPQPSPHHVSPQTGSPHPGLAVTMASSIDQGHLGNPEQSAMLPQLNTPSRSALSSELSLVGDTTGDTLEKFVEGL
# Protocol: FIG. 1. COMPOUND 1 inhibits β-catenin/TCF transcription. • A(i) and A(ii). Structures of COMPOUND 1, COMPOUND 2, COMPOUND 3, COMPOUND 4, and COMPOUND 5. • B(i) and B(ii). […] SW480 cells (10^5), (FIG. 1B(i)), were transfected with β-catenin/TCF luciferase construct. Cells were treated with COMPOUND 1 (1-64 μM). 24 hours post treatment lysates were prepared and subjected to dual luciferase assay. The data is represented in different form in FIG. 1B(ii). • C. COMPOUND 1 has no effect on NFAT reporter construct. Stably transfected Jurkat cells, right panel, with an NFAT reporter construct, were stimulated with PMA (10 ng/ml)/lonomycin (1 μg/ml), and treated with COMPOUND 1 (0.781-50 μM). 24 hours post treatment lysates were prepared and subjected to dual luciferase assay. All experiments were performed in duplicate and the values plotted as means +/−standard deviation. • D. CBP is the molecular target of COMPOUND 1. Nuclear extracts of SW480 cells were incubated with streptavidin-agarose beads coated with COMPOUND 2 (25 μM). Beads were washed 3 times and the eluted were subjected to gel electrophoresis and immunoblotting, with anti-CBP antibodies. […] The lysates were desalted using G-25 1 cc columns (Pharmacia) to remove the unbound ^14C-labeled-COMPOUND 1, and ^14C-labeled-COMPOUND 1 incorporation was measured. […]
# p300 (1-111) = biological target: T3, p300 (1-111) (Homo sapiens, UniProt Q09472); test: Pull-down of p300 deletion constructs on COMPOUND 2 coated beads, competition with excess COMPOUND 1; format: binding; details: E. coli expressed 6x-His protein, 100 μM COMPOUND 2
# T3 construct: 6xHis (C); HSV tag (C); expressed in transfected cells
# T3 sequence (Q09472 1-117): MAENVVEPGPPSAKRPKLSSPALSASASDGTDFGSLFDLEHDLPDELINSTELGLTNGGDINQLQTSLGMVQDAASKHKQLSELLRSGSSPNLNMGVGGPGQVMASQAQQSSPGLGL
# Protocol: FIG. 2. The first 111 amino acids of CBP, but not p300, specifically bind COMPOUND 1. • A. Schematic representation of the wild-type and deletion constructs for CBP. • B. CBP (1-111) contains the minimal binding domain of COMPOUND 1. Expression levels of CBP deletion constructs in SW480 cells are shown (upper panel). 10 μg of total protein was subjected to gel electrophoresis and subjected to immunoblotting using anti-His antibodies. Whole cell lysates of SW480 cells expressing CBP deletion constructs were bound to streptavidin-agarose beads coated with 100 μM of COMPOUND 2. The bound fractions were subjected to gel electrophoresis and immunoblotting using anti-His antibodies (lower panel). Arrows point to constructs which remained bound to COMPOUND 2 coated beads. • C. […] CBP deletion constructs, CBP(1-111),CBP (1-211), and CBP (1-351) and p300 deletion constructs, p300 (1-111), p300 (1-211), and p300 (1-351) were transfected into SW480 cells. Whole cell lysates were incubated with streptavidin-agarose beads or streptavidin-agarose beads coated with 100 μM COMPOUND 2 (lower panel). The binding of CBP constructs (1-111,1-211, and 1-351) and p300 constructs (1-111,1-211, and 1-351) to the beads was challenged with excess COMPOUND 1 (150 μM). • D. CBP (1-111) binds to COMPOUND 1 in a phosphorylation independent manner. […]
# Min mouse = test: Polyp number in Min mouse model; format: in vivo; details: for Polyp Number (Mean + S.D.), Colon / Polyp Number (Mean + S.D.), Small intestine / Polyp Number (Mean + S.D.), Total / % Inhibition vs. VH: Min mouse; for % Inhibition vs. VH: total polyp number vs. vehicle
# Protocol: COMPOUND 4, COMPOUND 5, or vehicle was administrated in wild type and Min mice. COMPOUND 4 is also an analog of COMPOUND 1 (FIG. 1A). The numbers of polyp formed in small intestine and colon of these mice after various treatments were measured (Table 6).
# [1] = system: nuclear β-catenin in SW480 cells; test: β-catenin immunofluorescence and western blot localization in SW480 cells; format: cell-based, human; details: data not shown
# Protocol: FIG. 4. COMPOUND 1 decreases nuclear β-catenin • A. β-catenin immunofluorescence microscopy. Log phase SW480 (left) and HCT116 (right) cells were fixed and stained with either anti-β-catenin red (upper panel, A) or anti-CBP (upper panel, B) green. The center panel represents the superimposed β-catenin and CBP in SW480 (left) and HCT116 (right) cells. […] 25 μg of total protein from the cell extracts of SW480 cells with or without 24 hr treatment of COMPOUND1 was used for detection of cytosolic and nuclear β-catenin.
# Immunofluorescence was used to examine the localization of CBP and β-catenin in SW480 and HCT116 cells treated with COMPOUND 1 (25 μM) or control (0.5% DMSO). Cells at log phase were seeded and after 24 hours, the cells were treated with COMPOUND 1 or control. 24 hours post treatment, cells were fixed. The coverslips were incubated with antibodies raised against CBP (A-22) (Santa Cruz Biotechnology) and β-catenin (Transduction Laboratories), respectively. The slides were examined using a Nikon PCM 2000 Laser Scanning Confocal Microscope after the secondary antibodies conjugated to either FITC or TRITC (Jackson ImmunoResearch, Westgrove, Pa.) were applied.
# The subcellular distribution of β-catenin and CBP was examined in order to determine whether the localization of either was affected by COMPOUND 1. […]
smiles,measurement,setting,value
"O=c1[nH]cc(F)c(=O)[nH]1 [5-FU, 5-fluorouracil]",Cytotoxicity,HL60,7.010 µg/mL
same,Cytotoxicity,293,2.015 µg/mL
same,Cytotoxicity,MCF7,1.751 µg/mL
same,Cytotoxicity,A549,1.007 µg/mL
same,Cytotoxicity,PC3,>10 µg/mL
same,Cytotoxicity,RPM17951,0.920 µg/mL
same,IC50,SW480 cells,1980 ± 170 nM
"COc1cccc2c1C(=O)c1c(O)c3c(c(O)c1C2=O)C[C@@](O)(C(=O)CO)C[C@@H]3O[C@H]1C[C@H](N)[C@H](O)[C@H](C)O1 [ADR, adriamycin]",Cytotoxicity,HL60,0.086 µg/mL
same,Cytotoxicity,293,<0.03 µg/mL
same,Cytotoxicity,MCF7,1.424 µg/mL
same,Cytotoxicity,A549,0.117 µg/mL
same,Cytotoxicity,PC3,0.267 µg/mL
same,Cytotoxicity,RPM17951,0.171 µg/mL
O=C(CCCCCNC(=O)CCCCC1SCC2NC(=O)NC21)NCCCCCC(=O)NCc1cccc(CNC(=O)N2CCC(=O)N3C(Cc4ccc(O)cc4)C(=O)N(Cc4cccc5ccccc45)CC23)c1 (centres unmarked) [COMPOUND 2],Binding of purified CBP (1-111) to COMPOUND 2 beads,CBP (1-111),specific binding
same,Major band retained on COMPOUND 2 affinity column,CBP,identified by immunoblotting as the CREB Binding Protein (CBP)
same,Binding of purified p300 (1-111) to COMPOUND 2 beads,p300 (1-111),not p300 (1-111)
CN1CC(=O)N2C(Cc3ccc(O)cc3)C(=O)N(Cc3cccc4cccnc34)CC2N1C(=O)NCc1ccccc1 (centres unmarked) [COMPOUND 4],Effect on number of polyp compared to vehicle control,"Min mouse; Min mice, about 300 mpk",reduce the number of polyp
same,"Polyp Number (Mean + S.D.), Colon",Min mouse; 300 mpk,1.4 ± 0.9
same,"Polyp Number (Mean + S.D.), Small intestine",Min mouse; 300 mpk,45.2 ± 22.1
same,"Polyp Number (Mean + S.D.), Total",Min mouse; 300 mpk,46.8 ± 17.0
same,% Inhibition vs. VH,Min mouse; 300 mpk,31%
"CC1=C(CC(=O)O)c2cc(F)ccc2/C1=C\c1ccc([S+](C)[O-])cc1 (centres unmarked) [Sulindac, reference compound]","Polyp Number (Mean + S.D.), Colon",Min mouse; 160 ppm,0.5 ± 0.5
same,"Polyp Number (Mean + S.D.), Small intestine",Min mouse; 160 ppm,48.0 ± 20.7
same,"Polyp Number (Mean + S.D.), Total",Min mouse; 160 ppm,48.5 ± 20.9
same,% Inhibition vs. VH,Min mouse; 160 ppm,28%
"CCC(=C/[C@H](C)C/C=C/C(C)=C/[C@@H](C)C(=O)[C@@H](C)[C@H](O)[C@@H](C)C/C(C)=C/C(=O)O)/C=C/[C@@H]1OC(=O)C=C[C@@H]1C [leptomycin B, reference compound]",Effect of nuclear transport inhibitor on COMPOUND 1-induced β-catenin transport,[1],eliminated COMPOUND 1-induced cytoplasmic transport of β-catenin
